In publication PMC12363342, “Investigating the N-terminal linker histone H1 subtypes as substrates for JmjC lysine demethylases” (RSC Chemical Biology, 2025):
Square brackets hold non-standard residues; d marks the D form. Ends that are not written are not given here. Lys(Me3) = C[N+](C)(C)CCCC[C@H](N)C(=O)O

Biological target: T1, KDM4E (Homo sapiens, UniProt B2RXH2)
T1 construct: KDM4DM1-L359,[39]; KDM4EM1-R336,[30]; His6 (N); made in house; host or cells: Escherichia coli
T1 sequence (B2RXH2 1-336): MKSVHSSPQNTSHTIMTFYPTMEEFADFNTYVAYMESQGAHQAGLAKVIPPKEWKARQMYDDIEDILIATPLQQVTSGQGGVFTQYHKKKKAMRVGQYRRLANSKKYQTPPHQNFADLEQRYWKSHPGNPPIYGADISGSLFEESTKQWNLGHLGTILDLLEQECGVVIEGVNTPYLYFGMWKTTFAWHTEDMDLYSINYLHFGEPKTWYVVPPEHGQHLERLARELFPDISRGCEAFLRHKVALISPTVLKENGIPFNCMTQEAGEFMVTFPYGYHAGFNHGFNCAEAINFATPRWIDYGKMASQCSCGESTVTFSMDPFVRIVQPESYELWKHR
Experiment: formaldehyde dehydrogenase (FDH)-coupled demethylation assay, KDM4E
Format: biochemical
Details: KDM4E (400 nM); for Km / kcat (KDM4E) / kcat/KM (KDM4E): FDH-coupled fluorescence assay, peptide 1–50 μM, HEPES pH 7.5; for Km / kcat (KDM4E): FAS 20 μM, LAA 200 μM, 2OG 200 μM, NAD+ 500 μM, FDH 2.0 μM, mean ± SEM (n = 3); for kcat/KM (KDM4E): catalytic efficiency; for substrate inhibition in Michaelis-Menten kinetics (KDM4E): FDH-coupled assay, Fig. S25
Description: Kinetic parameters were determined by recording the initial reaction rates of NADH production at varying histone peptide concentrations (Fig. S24 and S25).
Kinetic parameters for demethylation of N^ε-trimethylated H1 peptides by KDM4D and KDM4E (400 nM) measured using a formaldehyde dehydrogenase-coupled demethylation assay. H1 peptide (1–50 μM), FAS (20 μM), LAA (200 μM), 2OG (200 μM), NAD^+ (500 μM), KDM4 enzyme (0.8 μM) and FDH (2.0 μM) in HEPES buffer at pH 7.5.
Substrate Km values for KDM4 enzymes were determined using a reported formaldehyde dehydrogenase/NAD coupled enzyme assay that quantifies formaldehyde production.[30] In brief, DNA encoding for wild-type full-length formaldehyde dehydrogenase was synthesised (by GenScript) and cloned into the pET-28B vector. The resultant plasmid was then transformed into the Rosetta strain of Escherichia coli. Coupled enzyme-assays were carried out in black polystyrene 384-well non-binding surface microplates (Corning) and kinetic measurements were obtained using a PHERAstar FS plate reader (BMG Labtech) equipped with a 350 nm excitation and 460 nm emission optic module.[30] All steps were performed in the assay buffer (50 mM HEPES pH 7.5, 0.01% (v/v) Tween-20). Substrate mixtures were prepared freshly and contained FAS (20 μM), LAA (200 μM), 2OG (200 μM), NAD^+ (500 μM), and H1 peptide (1–50 μM); they were dispensed (25 μL final volume) in triplicate. Assays were initiated by plate reader injection of 25 μL of a mixture of KDM4 (0.8 μM) and formaldehyde dehydrogenase (FDH) (2.0 μM) in assay buffer (50 mM HEPES pH 7.5, 0.01% (v/v) Tween-20). Production of NADH was measured at 60 second intervals over 25 cycles. Kinetic parameters were determined from the reaction rate during the initial linear phase of formaldehyde production, and specific activities were calculated from a formaldehyde standard curve and fitted to the Michaelis–Menten equation using GraphPad Prism Version 5.0 (GraphPad software, La Jolla, CA, USA). Each assay was carried out in triplicate with independently prepared reaction mixtures.

Substance	Km [µM]	kcat (KDM4E) [s⁻¹]	kcat/KM (KDM4E) [M⁻¹ s⁻¹]	substrate inhibition in Michaelis-Menten kinetics (KDM4E)
KKKAAK[Lys(Me3)]AGGTPRKA [Peptide H1.2K26me3, 15-mer linker histone H1.2 residues 20-34 peptide, tri-methylated K26]	5.22 ± 0.54	0.0313 ± 0.0015	6000	–
KKKAA[Lys(Me3)]KAGGTPRKA [Peptide H1.2K25me3, 15-mer linker histone H1.2 residues 20-34 peptide, tri-methylated K25]	18.5 ± 6.87	0.0767 ± 0.0218	4120	evidence for substrate inhibition
KKKAR[Lys(Me3)]SAGAAKRKA [Peptide H1.4K25me3, 15-mer linker histone H1.4 residues 20-34 peptide, tri-methylated K25]	11.5 ± 3.19	0.0435 ± 0.00783	3770	evidence for substrate inhibition
KKKATK[Lys(Me3)]AAGAGAAK [Peptide H1.5K26me3, 15-mer linker histone H1.5 residues 20-34 peptide, tri-methylated K26]	4.04 ± 0.51	0.0218 ± 0.0013	5400	–
KKKA[Lys(Me3)]KAGATAGKRK [Peptide H1.3K24me3, 15-mer linker histone H1.3 residues 20-34 peptide, tri-methylated K24]	6.45 ± 1.51	0.0333 ± 0.00417	5170	–
